Where two headings read alike, the source gives them in different places. d = 2'-deoxy (DNA); m = 2'-O-methyl
Tests used:
[1] = system: A549b cells; assay: Anti-proliferative activity of a drug on A549b cells pretreated with anti-BRCA2 OLIGO/siRNA; assay type: cell-based; details: Homo sapiens, curves conservatively extrapolated, read-out: concentration of olaparib required to inhibit proliferation of A549b cells by 50% (IC50)
Procedure: OLIGOs were introduced into cells with the use of Lipofectamine 2000 (LFA2K) (Invitrogen, Burlington, Ontario, Canada). OLIGOs were mixed with LFA2K at a ratio of 0.2 μg/ml per 10 nM OLIGO. The mixture was prepared at 11× the final concentration to which cells were exposed, so that 200 μL was added to 2 mL of medium in which cells were plated. After incubating at room temperature for 20 minutes, according to manufacturer's instructions, the OLIGOs were added to the cell medium. The OLIGO/LFA2K mix was then incubated (37° C.) on the cells for 4 hours, after which a second volume of medium was added. Cells were then incubated for 20 hours. […]
For cells treated with the drug olaparib, for the purposes of determining whether inhibitory activity was enhanced by the OLIGO pretreatment, olaparib was added at this time, in concentrations of from 0.01 μM to 3 μM. […] Following a further 4-day incubation, the proliferation of the treated cells (fold-increase in cell number) was calculated as a percentage of that of control cells. […] As indicated in Example 1, for the purpose of determining the anti-proliferative effect of antisense OLIGOs alone, the proliferation of cells treated with antisense OLIGOs was calculated as a percent of that of cells treated with an equivalent concentration of non-complementary control OLIGO (in this case OLIGO 32). […]

[2] = system: BRCA2 mRNA; assay: RT-qPCR of BRCA2 mRNA 24 h after OLIGO transfection of A549 cells; assay type: cell-based, human; details: 20 nM OLIGO, 24 h post-transfection, FIG. 16
Procedure: (§1) Briefly, A549 cells seeded at a density of 2.0×10^5 per flask were transfected with 20 nM of OLIGO specific for each target or control OLIGO using Lipofectamine 2000 as the transfection reagent. Twenty four hours post-transfection mRNA was extracted and reverse transcribed into cDNA. RT-qPCR was performed for target mRNA levels using TaqMan reagents according to established protocols.

[3] = system: A549b cells; assay: Proliferation of A549b cells after transfection with antisense OLIGO/siRNA (cell counting, % of control OLIGO); assay type: cell-based, human; details: 20 nM; compared to non-targeting OLIGO 491S; preliminary assay, FIG. 12
Procedure: Cultured cell lines were maintained in minimum essential medium a with nucleosides plus 10% fetal bovine serum and penicillin (50 units/mL)/streptomycin (50 mg/L) (growth medium). Cultures were incubated in a humidified atmosphere of 5% CO2 at 37° C. Cultured cell lines were maintained and cytotoxicity assays conducted as described previously (3). Rapidly proliferating cells were utilized for establishing cultures of experimental cells, which were allowed to plate overnight in 25-cm^2 flasks prior to manipulation. […]
OLIGOs were introduced into cells with the use of Lipofectamine 2000 (LFA2K) (Invitrogen, Burlington, Ontario, Canada). […] Following the 4-day incubation, the proliferation of the treated cells (fold-increase in cell number) was calculated as a percentage of that of control cells. […] For the purpose of determining the anti-proliferative effect of antisense OLIGOs, the proliferation of cells treated with antisense OLIGOs was calculated as a percent of that of cells treated with an equivalent concentration of non-complementary control OLIGO (in this case OLIGO 32) mixed with an equivalent amount of LFA2K.
These experiments were carried out essentially as described in Example 2, after which one volume of medium was added, and cells were further incubated for 20 hours. […] Cells were incubated for 4 days, at which time cell number was counted. […]

[4] = system: thymidylate synthase mRNA; assay: RT-qPCR of TS mRNA 24 h after OLIGO transfection of A549 cells; assay type: cell-based, human; details: 20 nM OLIGO, 24 h post-transfection, FIG. 16
Procedure: as §1

Row | IC50 ([1]; in the absence of BR1) | IC50 ([1]; in the presence of BR1 (pretreatment)) | Compound | effect on BRCA2 mRNA level [2] | relative proliferation [3] | effect on TS mRNA level [4]
1 | ~5000 nM | ~50 nM | O=C(c1cc(Cc2n[nH]c(=O)c3ccccc23)ccc1F)N1CCN(C(=O)C2CC2)CC1 [olaparib] |  |  | 
2 |  |  | OLIGO 83: antisense to 3′-untranslated region of thymidylate synthase mRNA, 5′-gccaguGGCAACATccuuaa-3′ (SEQ ID NO: 25), fully phosphorothioated (antisense GCCAGUGGCAACATCCUUAA; sugars from the 5' end m6 d8 m6, all phosphorothioate, methylation of C not given here) | no significant effect | approximately 20% | reduce
